Where “and” joins values, the source holds several entries; their conditions need not be identical. Equal entries are not always repeated. Inconclusive results and toxic doses are left out. Cut-off read from the data, not from the text of the source: active = T/C of 150% or more; inactive = T/C below 125%.
Tested on: L1210 leukemia ip in BDF1 mice, survival T/C
Experiment: NCI In Vivo Anticancer Drug Screen. Data for tumor model L1210 Leukemia (intraperitoneal) in B6D2F1 (BDF1) mice
Settings: endpoint: mean survival time, higher = longer survival
Procedure, shortened: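 Mice bearing the transplanted tumor received compound or vehicle. Survival of the treated group was divided by that of the vehicle-treated control group to give the ratio.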

[1] = dose: 100.0 mg/kg/injection, schedule: Q04DX002 (ip), vehicle: saline
[2] = dose: 200.0 mg/kg/injection, schedule: Q04DX002 (ip), vehicle: saline
[3] = dose: 400.0 mg/kg/injection, schedule: Q04DX002 (ip), vehicle: saline
[4] = dose: 100.0 mg/kg/injection, schedule: Q01DX009 (ip), vehicle: Klucel (hydroxypropylcellulose) (HPC)
[5] = dose: 100.0 mg/kg/injection, schedule: Q04DX002 (ip), vehicle: Klucel (hydroxypropylcellulose) (HPC)
[6] = dose: 200.0 mg/kg/injection, schedule: Q01DX009 (ip), vehicle: Klucel (hydroxypropylcellulose) (HPC)
[7] = dose: 200.0 mg/kg/injection, schedule: Q04DX002 (ip), vehicle: Klucel (hydroxypropylcellulose) (HPC)
[8] = dose: 400.0 mg/kg/injection, schedule: Q01DX009 (ip), vehicle: Klucel (hydroxypropylcellulose) (HPC)
[9] = dose: 400.0 mg/kg/injection, schedule: Q04DX002 (ip), vehicle: Klucel (hydroxypropylcellulose) (HPC)
[10] = dose: 100.0 mg/kg/injection, schedule: Q01DX009 (ip), vehicle: saline with Tween-80
[11] = dose: 200.0 mg/kg/injection, schedule: Q01DX009 (ip), vehicle: saline with Tween-80
[12] = dose: 400.0 mg/kg/injection, schedule: Q01DX009 (ip), vehicle: saline with Tween-80
[13] = dose: 100.0 mg/kg/injection, schedule: Q04DX003 (ip), vehicle: saline with Tween-80
[14] = dose: 200.0 mg/kg/injection, schedule: Q04DX003 (ip), vehicle: saline with Tween-80
[15] = dose: 25.0 mg/kg/injection, schedule: Q04DX002 (ip), vehicle: Klucel (hydroxypropylcellulose) (HPC)
[16] = dose: 50.0 mg/kg/injection, schedule: Q04DX002 (ip), vehicle: Klucel (hydroxypropylcellulose) (HPC)
[17] = dose: 100.0 mg/kg/injection, schedule: Q01DX001 (ip), vehicle: saline
[18] = dose: 100.0 mg/kg/injection, schedule: Q04DX003 (ip), vehicle: Klucel (hydroxypropylcellulose) (HPC)
[19] = dose: 200.0 mg/kg/injection, schedule: Q04DX003 (ip), vehicle: Klucel (hydroxypropylcellulose) (HPC)
[20] = dose: 400.0 mg/kg/injection, schedule: Q04DX003 (ip), vehicle: Klucel (hydroxypropylcellulose) (HPC)

Measured: T/C

CS(=O)(=O)NOCCCCONS(C)(=O)=O
inactive: dose: 100.0 mg/kg/injection, schedule: Q01DX001 (ip), vehicle: saline with Tween-80 103 % of control | dose: 200.0 mg/kg/injection, schedule: Q01DX001 (ip), vehicle: saline with Tween-80 91 % of control | dose: 400.0 mg/kg/injection, schedule: Q01DX001 (ip), vehicle: saline with Tween-80 92 % of control

CCN(C)C(=O)Nc1ccc(N)cc1
inactive: [1] 101 % of control | [2] 104 % of control | [3] 108 % of control

CCCCCCC[CH2][Sn]([Cl])([Cl])[CH2]CCCCCCC
inactive: dose: 50.0 mg/kg/injection, schedule: Q01DX001 (ip), vehicle: carboxymethylcellulose (CMC) 96 % of control | dose: 100.0 mg/kg/injection, schedule: Q01DX001 (ip), vehicle: carboxymethylcellulose (CMC) 96 % of control | dose: 200.0 mg/kg/injection, schedule: Q01DX001 (ip), vehicle: carboxymethylcellulose (CMC) 96 % of control | dose: 400.0 mg/kg/injection, schedule: Q01DX001 (ip), vehicle: carboxymethylcellulose (CMC) 96 % of control

FC(F)(F)c1ccccc1NC(=S)N(Cc1ccccc1)Cc1ccccc1
inactive: [4] 92 % of control | [5] 110 % of control | [6] 103 % of control | [7] 92 % of control | [8] 96 % of control | [9] 100 % of control

COc1ccc(C(=O)C(=O)c2ccccc2Cl)cc1
inactive: dose: 100.0 mg/kg/injection, schedule: Q01DX005 (ip), vehicle: saline with Tween-80 104 % of control | [10] 96 % of control | dose: 200.0 mg/kg/injection, schedule: Q01DX005 (ip), vehicle: saline with Tween-80 101 % of control | [11] 107 % of control | dose: 400.0 mg/kg/injection, schedule: Q01DX005 (ip), vehicle: saline with Tween-80 101 % of control | [12] 100 % of control

Cc1ccc(NC(=S)Nc2ccccc2)c(C)c1
inactive: dose: 100.0 mg/kg/injection, schedule: Q01DX001 (ip), vehicle: other 89 % of control | [4] 102 % of control | [5] 87 % of control | dose: 200.0 mg/kg/injection, schedule: Q01DX001 (ip), vehicle: other 94 % of control | [6] 97 % of control | [7] 90 % of control | dose: 400.0 mg/kg/injection, schedule: Q01DX001 (ip), vehicle: other 97 % of control | [8] 94 % of control | [9] 106 % of control

Nc1ncnc2c1ncn2C1OC(COP(=O)(O)OCC(N)Cc2ccccc2)C(O)C1O (configuration not stated)
inactive: dose: 100.0 mg/kg/injection, schedule: Q01DX005 (ip), vehicle: saline 87 % of control | dose: 200.0 mg/kg/injection, schedule: Q01DX005 (ip), vehicle: saline 107 % of control

COC(=O)c1ccc2oc(=O)cc(C)c2c1O
inactive: [10] 95 % of control | [13] 93 % of control | [11] 100 % of control | [14] 95 % of control | [12] 94 % of control | dose: 400.0 mg/kg/injection, schedule: Q04DX003 (ip), vehicle: saline with Tween-80 93 % of control

CCC1SC(=S)N(C(=O)c2ccc([N+](=O)[O-])cc2)C1CC (configuration not stated)
inactive: [15] 111 % of control | [16] 95 % of control

Cc1cnc2ccccc2c1
inactive: [17] 100 % of control | dose: 200.0 mg/kg/injection, schedule: Q01DX001 (ip), vehicle: saline 100 % of control

CC(C)C1CCC(NC(=O)Nc2ccccc2)CC1 (configuration not stated)
inactive: dose: 25.0 mg/kg/injection, schedule: Q01DX009 (ip), vehicle: saline with Tween-80 93 % of control | dose: 25.0 mg/kg/injection, schedule: Q04DX003 (ip), vehicle: saline with Tween-80 97 % of control | dose: 50.0 mg/kg/injection, schedule: Q01DX009 (ip), vehicle: saline with Tween-80 95 % of control | dose: 50.0 mg/kg/injection, schedule: Q04DX003 (ip), vehicle: saline with Tween-80 101 % of control | dose: 100.0 mg/kg/injection, schedule: Q01DX001 (ip), vehicle: Klucel (hydroxypropylcellulose) (HPC) 111 % of control | [10] 88 % of control | [18] 94 % of control | [13] 100 % of control and 106 % of control | dose: 200.0 mg/kg/injection, schedule: Q01DX001 (ip), vehicle: Klucel (hydroxypropylcellulose) (HPC) 101 % of control | [19] 101 % of control | dose: 400.0 mg/kg/injection, schedule: Q01DX001 (ip), vehicle: Klucel (hydroxypropylcellulose) (HPC) 103 % of control | [20] 94 % of control

S=C(Nc1cccc(Cl)c1)Nc1cccc(Cl)c1
inactive: [13] 94 % of control | [14] 97 % of control

C(CC1CCNCC1)CC1CCNCC1 (tested in a mixture with another compound)
inactive: [17] 94 % of control

CCCCCCCCCCCC[n+]1ccc(C)cc1C
inactive: dose: 0.01 mg/kg/injection, schedule: Q01DX015 (ip), vehicle: saline 92 % of control | dose: 0.02 mg/kg/injection, schedule: Q01DX015 (ip), vehicle: saline 98 % of control | dose: 0.04 mg/kg/injection, schedule: Q01DX015 (ip), vehicle: saline 97 % of control | dose: 0.08 mg/kg/injection, schedule: Q01DX015 (ip), vehicle: saline 98 % of control | dose: 0.1 mg/kg/injection, schedule: Q01DX009 (ip), vehicle: saline 97 % of control | dose: 0.1 mg/kg/injection, schedule: Q04DX003 (ip), vehicle: saline 102 % of control | dose: 0.2 mg/kg/injection, schedule: Q01DX009 (ip), vehicle: saline 92 % of control | dose: 0.2 mg/kg/injection, schedule: Q04DX003 (ip), vehicle: saline 97 % of control | dose: 0.4 mg/kg/injection, schedule: Q01DX009 (ip), vehicle: saline 101 % of control | dose: 0.4 mg/kg/injection, schedule: Q04DX003 (ip), vehicle: saline 94 % of control | dose: 0.59 mg/kg/injection, schedule: Q01DX009 (ip), vehicle: saline 91 % of control

COP(=O)(OC)C(O)C(Cl)Cl (configuration not stated)
inactive: [1] 115 % of control | [2] 104 % of control | [3] 104 % of control

CCCCCCCCCCCCCCCC1=NN(c2ccccc2)C(=O)C1NC(=O)O (configuration not stated)
inactive: [18] 107 % of control | [19] 97 % of control | [20] 98 % of control

CCOC1c2cnc(C)n2C=CN1C(C)=O (configuration not stated)
inactive: dose: 50.0 mg/kg/injection, schedule: Q01DX009 (ip), vehicle: water 96 % of control | dose: 100.0 mg/kg/injection, schedule: Q01DX009 (ip), vehicle: water 94 % of control | dose: 100.0 mg/kg/injection, schedule: Q04DX003 (ip), vehicle: water 116 % of control | dose: 200.0 mg/kg/injection, schedule: Q04DX003 (ip), vehicle: water 115 % of control

CSC1SC(C)CC(C)S1 (configuration not stated)
inactive: dose: 12.5 mg/kg/injection, schedule: Q04DX002 (ip), vehicle: Klucel (hydroxypropylcellulose) (HPC) 95 % of control | [15] 92 % of control | [16] 98 % of control

Source: PubChem BioAssay AID248 (DTP/NCI, 2004)
